Results reported in PMC3454511 (The Journal of organic chemistry, 2012).
≈ marks a conversion by molar mass, not a printed value.

Test system: not listed separately
Assay: Microsomal stability, human
Conditions: % parent remaining at 1 hour

Row | SMILES | microsomal stability human
1 | OC[C@@H]1[C@H](c2ccc(Br)cc2)[C@@H]2CNCCCCN12 [29a, ((8R,9R,10S)-9-(4-Bromophenyl)-1,6-diazabicyclo[6.2.0]decan-10-yl) methanol] | 96 % remaining
2 | CCCN1C2CN(C(C)=O)CC1C2c1ccccc1 (centres unmarked) [27b] | 93 % remaining
3 | CCCN1C(CO)C2c3ccccc3N(S(C)(=O)=O)CC21 (racemic) [31c, ((±)-4-(Methylsulfonyl)-2-propyl-1,2,2a,3,4,8b-hexahydroazeto[2,3-c]quinolin-1-yl) methanol] | 69 % remaining
4 | CCCN1C2CN(S(C)(=O)=O)CC1C2c1ccccc1 (centres unmarked) [27c, 3-(Methylsulfonyl)-7-phenyl-6-propyl-3,6-diazabicyclo[3.1.1]heptane] | 86 % remaining

Test system: not listed separately
Assay: Plasma stability, mouse
Conditions: % parent remaining at 5 h

Row | SMILES | plasma stability mouse
5 | OC[C@@H]1[C@H](c2ccc(Br)cc2)[C@@H]2CNCCCCN12 [29a, ((8R,9R,10S)-9-(4-Bromophenyl)-1,6-diazabicyclo[6.2.0]decan-10-yl) methanol] | 94 % remaining
6 | CCCN1C2CN(C(C)=O)CC1C2c1ccccc1 (centres unmarked) [27b] | 94 % remaining
7 | CCCN1C(CO)C2c3ccccc3N(S(C)(=O)=O)CC21 (racemic) [31c, ((±)-4-(Methylsulfonyl)-2-propyl-1,2,2a,3,4,8b-hexahydroazeto[2,3-c]quinolin-1-yl) methanol] | 107 % remaining
8 | CCCN1C2CN(S(C)(=O)=O)CC1C2c1ccccc1 (centres unmarked) [27c, 3-(Methylsulfonyl)-7-phenyl-6-propyl-3,6-diazabicyclo[3.1.1]heptane] | 102 % remaining

Test system: not listed separately
Assay: Solubility in PBS and H2O, dry powder, 24 hour timepoint
Conditions: H2O

Row | SMILES | solubility H2O
9 | CCCN1C2CN(C(C)=O)CC1C2c1ccccc1 (centres unmarked) [27b] | 483 µM (≈ 125 µg/mL)
10 | CCCN1C(CO)C2c3ccccc3N(S(C)(=O)=O)CC21 (racemic) [31c, ((±)-4-(Methylsulfonyl)-2-propyl-1,2,2a,3,4,8b-hexahydroazeto[2,3-c]quinolin-1-yl) methanol] | >500 µM

Same assay, conditions: PBS

Row | SMILES | solubility PBS
11 | CCCN1C2CN(C(C)=O)CC1C2c1ccccc1 (centres unmarked) [27b] | 476 µM (≈ 123 µg/mL)
12 | CCCN1C(CO)C2c3ccccc3N(S(C)(=O)=O)CC21 (racemic) [31c, ((±)-4-(Methylsulfonyl)-2-propyl-1,2,2a,3,4,8b-hexahydroazeto[2,3-c]quinolin-1-yl) methanol] | 478 µM (≈ 148 µg/mL)

Test system: not listed separately
Assay: Microsomal stability, mouse
Conditions: % parent remaining at 1 hour

Row | SMILES | microsomal stability mouse
13 | OC[C@@H]1[C@H](c2ccc(Br)cc2)[C@@H]2CNCCCCN12 [29a, ((8R,9R,10S)-9-(4-Bromophenyl)-1,6-diazabicyclo[6.2.0]decan-10-yl) methanol] | 98 % remaining
14 | CCCN1C2CN(C(C)=O)CC1C2c1ccccc1 (centres unmarked) [27b] | 93 % remaining
15 | CCCN1C(CO)C2c3ccccc3N(S(C)(=O)=O)CC21 (racemic) [31c, ((±)-4-(Methylsulfonyl)-2-propyl-1,2,2a,3,4,8b-hexahydroazeto[2,3-c]quinolin-1-yl) methanol] | 34 % remaining
16 | CCCN1C2CN(S(C)(=O)=O)CC1C2c1ccccc1 (centres unmarked) [27c, 3-(Methylsulfonyl)-7-phenyl-6-propyl-3,6-diazabicyclo[3.1.1]heptane] | 72 % remaining

Test system: not listed separately
Assay: Plasma protein binding by rapid-equilibrium dialysis, human
Conditions: 37 °C for 5 h

Row | SMILES | protein binding human
17 | OC[C@@H]1[C@H](c2ccc(Br)cc2)[C@@H]2CNCCCCN12 [29a, ((8R,9R,10S)-9-(4-Bromophenyl)-1,6-diazabicyclo[6.2.0]decan-10-yl) methanol] | 24 % bound
18 | CCCN1C2CN(C(C)=O)CC1C2c1ccccc1 (centres unmarked) [27b] | 23 % bound
19 | CCCN1C(CO)C2c3ccccc3N(S(C)(=O)=O)CC21 (racemic) [31c, ((±)-4-(Methylsulfonyl)-2-propyl-1,2,2a,3,4,8b-hexahydroazeto[2,3-c]quinolin-1-yl) methanol] | 45 % bound
20 | CCCN1C2CN(S(C)(=O)=O)CC1C2c1ccccc1 (centres unmarked) [27c, 3-(Methylsulfonyl)-7-phenyl-6-propyl-3,6-diazabicyclo[3.1.1]heptane] | 31 % bound

Test system: not listed separately
Assay: Plasma protein binding by rapid-equilibrium dialysis, mouse
Conditions: 37 °C for 5 h

Row | SMILES | protein binding mouse
21 | OC[C@@H]1[C@H](c2ccc(Br)cc2)[C@@H]2CNCCCCN12 [29a, ((8R,9R,10S)-9-(4-Bromophenyl)-1,6-diazabicyclo[6.2.0]decan-10-yl) methanol] | 46 % bound
22 | CCCN1C2CN(C(C)=O)CC1C2c1ccccc1 (centres unmarked) [27b] | 13 % bound
23 | CCCN1C(CO)C2c3ccccc3N(S(C)(=O)=O)CC21 (racemic) [31c, ((±)-4-(Methylsulfonyl)-2-propyl-1,2,2a,3,4,8b-hexahydroazeto[2,3-c]quinolin-1-yl) methanol] | 50 % bound
24 | CCCN1C2CN(S(C)(=O)=O)CC1C2c1ccccc1 (centres unmarked) [27c, 3-(Methylsulfonyl)-7-phenyl-6-propyl-3,6-diazabicyclo[3.1.1]heptane] | 39 % bound

Test system: not listed separately
Assay: Hepatocyte stability, human
Conditions: % parent remaining at 2 hour

Row | SMILES | hepatocytes human
25 | OC[C@@H]1[C@H](c2ccc(Br)cc2)[C@@H]2CNCCCCN12 [29a, ((8R,9R,10S)-9-(4-Bromophenyl)-1,6-diazabicyclo[6.2.0]decan-10-yl) methanol] | 104 % remaining
26 | CCCN1C2CN(C(C)=O)CC1C2c1ccccc1 (centres unmarked) [27b] | 104 % remaining
27 | CCCN1C2CN(S(C)(=O)=O)CC1C2c1ccccc1 (centres unmarked) [27c, 3-(Methylsulfonyl)-7-phenyl-6-propyl-3,6-diazabicyclo[3.1.1]heptane] | 72 % remaining

Test system: not listed separately
Assay: Bidirectional Caco-2 permeability
Format: in vitro ADME
Conditions: human, Caco-2

Row | SMILES | Papp A→B | Papp B→A
28 | OC[C@@H]1[C@H](c2ccc(Br)cc2)[C@@H]2CNCCCCN12 [29a, ((8R,9R,10S)-9-(4-Bromophenyl)-1,6-diazabicyclo[6.2.0]decan-10-yl) methanol] | 14 ×10⁻⁶ cm/s | 32 ×10⁻⁶ cm/s
29 | CCCN1C2CN(S(C)(=O)=O)CC1C2c1ccccc1 (centres unmarked) [27c, 3-(Methylsulfonyl)-7-phenyl-6-propyl-3,6-diazabicyclo[3.1.1]heptane] | 66 ×10⁻⁶ cm/s | 54 ×10⁻⁶ cm/s

Test system: Caco-2 monolayer
Assay: Bidirectional Caco-2 permeability
Format: in vitro ADME
Conditions: A-B direction

Row | SMILES | Caco-2 A-B
30 | CCCN1C2CN(C(C)=O)CC1C2c1ccccc1 (centres unmarked) [27b] | 54 10^−6 cm.s^−1
31 | CCCN1C(CO)C2c3ccccc3N(S(C)(=O)=O)CC21 (racemic) [31c, ((±)-4-(Methylsulfonyl)-2-propyl-1,2,2a,3,4,8b-hexahydroazeto[2,3-c]quinolin-1-yl) methanol] | 56 10^−6 cm.s^−1

Same assay, conditions: B-A direction

Row | SMILES | Caco-2 B-A
32 | CCCN1C2CN(C(C)=O)CC1C2c1ccccc1 (centres unmarked) [27b] | 56 10^−6 cm.s^−1
33 | CCCN1C(CO)C2c3ccccc3N(S(C)(=O)=O)CC21 (racemic) [31c, ((±)-4-(Methylsulfonyl)-2-propyl-1,2,2a,3,4,8b-hexahydroazeto[2,3-c]quinolin-1-yl) methanol] | 64 10^−6 cm.s^−1

Test system: not listed separately
Assay: Plasma stability, human
Conditions: % parent remaining at 5 h

Row | SMILES | plasma stability human
34 | OC[C@@H]1[C@H](c2ccc(Br)cc2)[C@@H]2CNCCCCN12 [29a, ((8R,9R,10S)-9-(4-Bromophenyl)-1,6-diazabicyclo[6.2.0]decan-10-yl) methanol] | 97 % remaining
35 | CCCN1C2CN(C(C)=O)CC1C2c1ccccc1 (centres unmarked) [27b] | 83 % remaining
36 | CCCN1C(CO)C2c3ccccc3N(S(C)(=O)=O)CC21 (racemic) [31c, ((±)-4-(Methylsulfonyl)-2-propyl-1,2,2a,3,4,8b-hexahydroazeto[2,3-c]quinolin-1-yl) methanol] | 101 % remaining
37 | CCCN1C2CN(S(C)(=O)=O)CC1C2c1ccccc1 (centres unmarked) [27c, 3-(Methylsulfonyl)-7-phenyl-6-propyl-3,6-diazabicyclo[3.1.1]heptane] | 113 % remaining

Test system: not listed separately
Assay: BBB parallel artificial membrane permeability assay
Format: in vitro ADME
Conditions: PAMPA

Row | SMILES | Papp
38 | OC[C@@H]1[C@H](c2ccc(Br)cc2)[C@@H]2CNCCCCN12 [29a, ((8R,9R,10S)-9-(4-Bromophenyl)-1,6-diazabicyclo[6.2.0]decan-10-yl) methanol] | 14 ×10⁻⁶ cm/s
39 | CCCN1C2CN(S(C)(=O)=O)CC1C2c1ccccc1 (centres unmarked) [27c, 3-(Methylsulfonyl)-7-phenyl-6-propyl-3,6-diazabicyclo[3.1.1]heptane] | 31 ×10⁻⁶ cm/s

Same assay, conditions: Pe

Row | SMILES | BBB PAMPA
40 | CCCN1C2CN(C(C)=O)CC1C2c1ccccc1 (centres unmarked) [27b] | 15 10^−6 cm s^−1
41 | CCCN1C(CO)C2c3ccccc3N(S(C)(=O)=O)CC21 (racemic) [31c, ((±)-4-(Methylsulfonyl)-2-propyl-1,2,2a,3,4,8b-hexahydroazeto[2,3-c]quinolin-1-yl) methanol] | 35 10^−6 cm s^−1

Test system: not listed separately
Assay: Hepatocyte stability, mouse
Conditions: % parent remaining at 2 hour

Row | SMILES | hepatocytes mouse
42 | OC[C@@H]1[C@H](c2ccc(Br)cc2)[C@@H]2CNCCCCN12 [29a, ((8R,9R,10S)-9-(4-Bromophenyl)-1,6-diazabicyclo[6.2.0]decan-10-yl) methanol] | 99 % remaining
43 | CCCN1C2CN(C(C)=O)CC1C2c1ccccc1 (centres unmarked) [27b] | 94 % remaining
44 | CCCN1C2CN(S(C)(=O)=O)CC1C2c1ccccc1 (centres unmarked) [27c, 3-(Methylsulfonyl)-7-phenyl-6-propyl-3,6-diazabicyclo[3.1.1]heptane] | 67 % remaining

Test system: not listed separately
Assay: physchem
Conditions: PBS, aqueous buffer, thermodynamic from solid

Row | SMILES | solubility at 24 h
45 | OC[C@@H]1[C@H](c2ccc(Br)cc2)[C@@H]2CNCCCCN12 [29a, ((8R,9R,10S)-9-(4-Bromophenyl)-1,6-diazabicyclo[6.2.0]decan-10-yl) methanol] | 485 µM (≈ 158 µg/mL)
46 | CCCN1C2CN(S(C)(=O)=O)CC1C2c1ccccc1 (centres unmarked) [27c, 3-(Methylsulfonyl)-7-phenyl-6-propyl-3,6-diazabicyclo[3.1.1]heptane] | 470 µM (≈ 138 µg/mL)

Same assay, conditions: water, thermodynamic from solid

Row | SMILES | solubility at 24 h
47 | OC[C@@H]1[C@H](c2ccc(Br)cc2)[C@@H]2CNCCCCN12 [29a, ((8R,9R,10S)-9-(4-Bromophenyl)-1,6-diazabicyclo[6.2.0]decan-10-yl) methanol] | 388 µM (≈ 126 µg/mL)
48 | CCCN1C2CN(S(C)(=O)=O)CC1C2c1ccccc1 (centres unmarked) [27c, 3-(Methylsulfonyl)-7-phenyl-6-propyl-3,6-diazabicyclo[3.1.1]heptane] | 490 µM (≈ 144 µg/mL)
